Measured values taken from patent publication US12697316B2, “Combination therapy with acetyl-leucine and miglustat” (INTRABIO LTD., priority 2019, dated 2026).

Key:
Npc1^−/− mice = test: Survival / life span of Npc1−/− mice; assay type: in vivo, mouse
Description: (§1) BALBc/NPC ^h and Sandhoff mice were bred as heterozygotes to generate affected mice (Npc1^−/−, Hexb^−/−) and controls (Npc^+/+, Hexb^+/+). The mice were housed under non-sterile conditions, with food and water available ad libitum. All experiments were conducted using protocols approved by the UK Home Office Animal Scientific Procedures Act, 1986.
(§2) ADLL and enantiomers (ADLL: Molekula #73891210, ALL: Sigma Aldrich #441511, ADL: Sigma #A0876) were administered as dry admix in powdered mouse diet (PicoLab Rodent Diet 20/5053, LabDiet) at a dose of 0.1 g/kg/day for in vivo studies. Treatment groups for in vivo study consisted of at least 5 mice per group. In vitro studies were conducted with each compound dissolved in PBS to generate a 50 mM stock solution and diluted to a 1 mM working concentration in media (DMEM High Glucose-Gibco #10566016).
Miglustat (Monsanto/Oxford GlycoSciences) was administered as a dry solid mixed with powdered chow (600 mg/kg/day) (see above) alone or in combination with ADLL.
The weight and activity of each mouse was recorded weekly until reaching the humane endpoint (defined as a loss of 1 g body weight within 24 h). Gait analysis was performed using CatWalk 10.5 system (Noldus) according to the manufacturer's instructions and five runs were recorded per animal at each time point. The camera was set to 40 cm below the walkway, the walkway was approximately 4 cm wide, and detection settings set to camera gain 14.05 and green intensity 0.12. Motor function was measured using an accelerating NG Rota Rod for mice (Ugo Basile) starting from 1 rpm to 10 rpm, accelerating every 30 seconds by one rpm. Bar crossing experiments on Sandhoff animals were conducted to measure motor strength and coordination. The apparatus used was modified from published studies. […] Latency to cross or fall from the bar was scored, with 120 sec, maximum, to termination of each trial. […]

[1] = test system: Npc1^−/− Chinese Hamster Ovary (CHO) cells; test: Sphingosine, total GSL and cholesterol content in NPC1 null CHO cells; assay type: cell-based; settings: 1 mM, 72 hours
Description: Wild type and NPC1 null Chinese Hamster Ovary (CHO) cells were kindly provided by Chris Wassif (NIH).
as §2
Sphingoid Base Measurements: Sphingoid bases (sphingosine and sphinganine) were extracted from 100 uL tissue homogenates in 500 uL of chloroform:methanol (1:2v/v) followed by sonication for 10 minutes at room temperature. Subsequently, 1 M 500-uL sodium chloride, 500 uL chloroform, and 3 M 100 uL sodium hydroxide were added to the samples, and vortexed every five minutes for 15 minutes at room temperature. Homogenates were centrifuged (13,000 g for 10 minutes) and the lower organic phase retained. Sphingoid bases were purified from the samples by pre-equilibrating SPA-NH2 columns with 2×1 mL chloroform followed by sample elution with 3×300 ul acetone. The samples were dried under nitrogen. Lipids were resuspended in 50 uL pre-warmed ethanol (37° C.) and 50 uL OPA labelling solution (1 mg OPA/20 uL Ethanol/1 uL 2-mercaptoethanol; dilution 1:2000 in 3% boric acid pH 10.5) was added. Samples were kept at room temperature in the dark for 20 minutes and vortexed every 10 minutes. Samples were buffered with 100 uL methanol: 5 mM Tris pH 7 (9:1) and centrifuged at 5,000 g for 2 minutes. Supernatants (150 uL) were loaded onto a reverse phase HPLC. Chromatography was carried out using a mobile phase of 85% acetonitrile/15% H2O at a flow rate of 1.0 ml/min. The orthophthaldehyde-labelled derivatives were monitored at an excitation wavelength of 340 nm and an emission wavelength of 450 nm. Quantification of trace peak area was carried out using EZChrom Elite software v3.2.1.
Glycosphingolipid measurements: Glycosphingolipids were extracted and measured by NP-HPLC according to published methods. Tissue homogenates in chloroform/methanol (C:M) (1:2 v/v) overnight at 4° C. The mixture was centrifuged (3000 rpm/10 min) and 1 mL chloroform and 1 mL PBS were added to the supernatant and centrifuged (3000 rpm/10 min). The lower phase was dried under N2, resuspended in 50 uL C:M 1:3 v/v and combined with the upper phase. Subsequently, GSLs were recovered using C18 Isolute columns (100 mg) (Biotage) pre-equilibrated with 4×1 mL MeOH and 2×1 mL H2O. Samples were washed 3×1 mL H2O and eluted with 1 mL C:M 98:2, 2×1 mL C:M 1:3, 1 mL MeOH. The column eluate was dried under N2, resuspended in 100 uL C:M 2:1, dried again under N2 and resuspended in ceramide glycanase (CGase) buffer (50 mM sodium acetate pH 5.5, 1 mg/mL sodium taurodeoxycholate). 50 mU CGase was added, and samples incubated at 37° C. overnight. Released oligosaccharides were anthranilic acid (2-AA) labelled and purified by mixing with 1 mL Acetonitrile: H2O 97:3 and added to Discovery DPA-6S columns (SUPELCO, # 52625-U) pre-equilibrated with 1 mL acetonitrile, 2×1 mL H2O, and 2×1 mL acetonitrile. Columns were washed with 2×1 mL Acetonitrile: H2O 95:5 v/v, and eluted in 2×0.75 mL H2O. Samples were loaded 30:70 H2O: MeCN (v/v) for normal phase HPLC. Solvent A was acetonitrile, solvent B was H2O, and solvent C was 100 mM […] (pH 3.85) in H2O. Separation was carried out at 30° C. using Waters Alliance 2695 separation module, excitation 360, emission 425 using Waters 2475 Fluorescence detector.
Cholesterol measurements: Cholesterol was measured with the Amplex Red kit (Molecular Probes) according to the manufacturer's instructions. Briefly, cell and tissue homogenates in 100 uL mQ water were Folch extracted and dried down under nitrogen. […]

Sandhoff (Hexb^−/−) mice = test: Bar crossing test in Sandhoff (Hexb−/−) mice; assay type: in vivo, mouse; settings: 12 and 13 weeks
Description: as §1
ADLL and enantiomers (ADLL: Molekula #73891210, ALL: Sigma Aldrich #441511, ADL: Sigma #A0876) were administered as dry admix in powdered mouse diet (PicoLab Rodent Diet 20/5053, LabDiet) at a dose of 0.1 g/kg/day for in vivo studies. Treatment groups for in vivo study consisted of at least 5 mice per group. […]
The weight and activity of each mouse was recorded weekly until reaching the humane endpoint (defined as a loss of 1 g body weight within 24 h). Gait analysis was performed using CatWalk 10.5 system (Noldus) according to the manufacturer's instructions and five runs were recorded per animal at each time point. […] Motor function was measured using an accelerating NG Rota Rod for mice (Ugo Basile) starting from 1 rpm to 10 rpm, accelerating every 30 seconds by one rpm. […] Latency to cross or fall from the bar was scored, with 120 sec, maximum, to termination of each trial. […]

SMILES | median survival (Npc1^−/− mice; Npc1−/− mice, ADLL 0.1 g/kg/day, miglustat 600 mg/kg/day in chow, untreated Npc1−/− 87 days) [days] | reduction of cholesterol content [1] [%] | reduction of sphingosine levels [1] [%] | reduction of total GSL levels [1] [%] | Bar-crossing test performance (Sandhoff (Hexb^−/−) mice) | increase in life span (Npc1^−/− mice; Npc1−/− mice treated from weaning, 0.1 g/kg/day, relative to untreated Npc1−/−)
CC(=O)NC(CC(C)C)C(=O)O (racemic) [ADLL, N-acetyl-DL-leucine] | 91 | 18 | 22 | 26 | significantly improved | 
CC(=O)N[C@H](CC(C)C)C(=O)O [ADL, N-acetyl-D-leucine] |  | 14 | 14 | 22 |  | not changed
CC(=O)N[C@@H](CC(C)C)C(=O)O [ALL, N-acetyl-L-leucine] |  | 13 | 29 | 25 |  | 
